Reference: patent US20210128674A1, “LHRH-CONJUGATED PRODIGIOSIN AND USES THEREOF” (Worcester Polytechnic Institute, priority 2019, published 2021)
Entries after “also recorded” stand apart in the source; their conditions may differ.

Tests used:
[1] = tested on: breast cancer cells with knocked down LHRH receptors (MDA-MB-231); experiment: alamar blue reduction after siRNA knock down of LHRH receptors; format: cell-based, human; details: 5 μM; 24, 48 and 72 hours; LHRH receptor knock down
MDA-MB-231 cells = experiment: confocal fluorescence imaging of cellular uptake and cytotoxicity; format: cell-based, human; details: 30 μM; 6 hours
[2] = tested on: MDA-MB-231 human triple negative breast cancer subcutaneous tumor xenografts; experiment: subcutaneous xenograft tumor shrinkage study; format: in vivo, Athymic Nude-Foxn1nu strain mice; details: for anti-tumor effect over early, mid and late stages: 14-day, 21-day and 28-day groups, 10 mg/kg IV
Procedure: In this section, cell culture, tumor induction and drug injection studies were carried out. First, 20 μl of 1×10^6 MDA-MB-231 human triple negative cancer cells were cultured in T75 tissue culture flasks (CELLTREAT, Pepperell, Mass., USA). This was carried out at 37° C. until 70% confluence was reached. The cells were grown under normal atmospheric pressure levels in a “L15^+ medium” that is typically made up of: L-15 medium (ATCC, Manassas, Va., USA), supplemented with 100 I.U./ml penicillin/100 µg/ml streptomycin and 10% FBS (ATCC, Manassas, Va., USA).
Forty 4-week old Athymic Nude-Foxn1nu strain mice with individual weights of ˜17 g each was purchase from Envigo (Somerset, N.J., USA). These animals were approved for use in the current work by the University of Massachusetts Medical School Institutional Animal Care and Use Committee (UMMS IACUC) with docket #A2630-17. All of the animals were maintained and used according to the approved UMMS IACUC procedure and guideline.
Subcutaneous tumor xenografts were induced by the injection of 5.0×10^6 of MDA-MB-231 human triple negative breast cancer cells (suspended in sterile saline) into the interscapular region (for a better angiogenic response). Tumor formation was carefully assessed by palpation. Tumor growth was then monitored daily with the digital calipers. The tumor volume was calculated using the following modified ellipsoidal formula: […]
where length was the longest axis of the tumor and width is the measurement at a right angle to the length.
The mice were randomly chosen in groups of three (for each drugs injection) into their respective treatment groups. These include groups of mice with early stage (14 days after tumor induction), mid stage (21 days after tumor induction) and late stage (28 days after tumor induction) tumors. The weights of the mice and their tumor sizes were monitored and measured (using digital calipers) on a daily basis. These precise volumes and measured weights of the mice were used to guide the administration of the drugs. They were also used to monitor toxicity and side effects associated with the drugs. For each of the study groups, 3 mice each were randomly assigned to injection of 10 mg/kg of the specific drug configuration (PGS, [D-Lys6]LHRH-conjugated PGS, and DMSO).
(§1) Different groups of mice were injected intravenously with each drug through their tail veins. This was done after tumor growth for 14, 21 and 28 days. The mice were injected with 10 mg/kg per week, during the two-week periods in which the effects of drugs were investigated. Following each drug administration, the tumor sizes were monitored with calipers on a daily basis (every 24 hours). In this way, the possible tumor shrinkage, growth or elimination, were monitored on a daily basis. Furthermore, the health status of the mice was monitored on a daily basis. This was done by monitoring the mice for signs of weight loss or altered motor ability in their cages. At the end of study, the mice were euthanized, following the approved IACUC guidelines and procedures. Thereafter, tumor tissues were excised from all of the mice, including tissues from their major organs (kidneys, spleen, liver and lungs).

[3] = tested on: breast cancer tumor (LHRH receptors on triple negative breast tumor tissue); experiment: drug-tissue adhesion study with drug-coated AFM tips; format: binding, mice
Procedure: In an effort to understand the specificity in the targeting of triple negative breast cancer via the receptors that are over-expressed on the tumor, adhesion measurements were carried out on the control xenograft tissue samples at different stages of tumor development. Adhesion forces and interactions (between the different drug molecules and receptors on the surfaces of the tumor tissues at different stages of development) were explored in an effort to understand the interactions of the drugs with the tumor and non-tumor tissue.
Antigen retrieval was carried out on the fixed tissue. This involved exposing target antigens to receptors on a 10 μm thick microtome tissue slice. These sliced tissues were prepared for adhesion measurements in an Asylum MFP3D-Bio Atomic Force Microscope (AFM) (Asylum Research, Oxford Instrument, CA, USA). The AFM tips RESP-20 AFM tip (Bruker Santa Barbara, Calif., USA) were dip-coated with prodigiosin, or [D-Lys6]LHRH-conjugated prodigiosin using the techniques described in Obayemi et al. (J. Mech. Behav. Biomed. Mater., 68 (2017), pp. 276-286).
A simple AFM tip dip-coating technique (J. D. Obayemi et al. Materials Science and Engineering C. 66, (2016), 51-65, Hampp, E. et al. Res. 27 (22), 2891, Hutter, J. L. et al. Instrum. 64, 1868) (of the drugs) was used to coat the AFM tips at room-temperature (˜23° C.). In addition, a positive control of LHRH peptides was coated onto the AFM tips and used to determine the adhesion forces between the receptors on breast cancer tissue. All of the coated AFM tips were air-dried for about 6 h and kept in a desiccator overnight before the adhesion measurements.
The spring constants of the coated and uncoated AFM tips were measured experimentally using the thermal tune method (J. D. Obayemi, et al. Mater., 68 (2017), 276-286). This was done to obtain the actual spring constants that were used to calculate the pull-off forces from Hooke's law. The adhesion interactions were measured for the following configurations of coatings on the AFM tips and breast cancer tumor at different stages on the mice: […]

[4] = histopathological and toxicity studies (body weight, clinical signs, H&E of organs); format: in vivo, athymic nude mice; details: 10 mg/kg weekly for two weeks, IV; for toxicity / side effects (clinical signs, mortality, body weight): tumor-bearing mice
Procedure: as §1
(§2) Following the in vivo tumor induction and growth experiments, tissues were extracted from the kidneys, spleen, lungs, liver and tumor regions. These were immediately fixed in 4% paraformaldehyde, dehydrated in a graded series of alcohol, and embedded in paraffin. Double doses of 10 mg/kg of PGS and PGS-[D-Lys6]LHRH were then administered (on a weekly basis for two weeks) to female athymic nude mice that were subcutaneously-induced with TNBC. In this way, qualitative toxicity was studied by considering differences in mortality, changes in body weight, clinical signs, gross observations and the histopathology of the lungs, kidneys and the liver at different stages of tumor development. This was done for the different drugs and cancer treatment durations. Daily observations and weight measurements were also used to check for possible animal reactions to the drugs, physiological changes, weight loss/gain, and the general well-being of the mice.
(§3) Hematoxylin and eosin (H and E) staining was also carried out. This was used for the identification of tumor necrosis and the examination of histologic changes that occurred in vital organs, following the administration of the drugs. Briefly, formalin-fixed, paraffin-embedded tissue/organs (tumor, kidneys, liver and lungs) samples (5 μm) were injected with PGS, [D-Lys6]LHRH-conjugated PGS, and DMSO. These were hydrated by passing them through decreasing concentrations (100, 90 &70%) of alcohol baths and water.
(§4) The hydrated tissue sections were then stained in hematoxylin solution for 5 mins. This was followed by rinsing with tap water for 3 minutes and differentiation in 1% acid alcohol for 5 minutes. Tap water was then used to rinse (three times) before dipping the sections in ammonia water for 2 minutes. This was followed by staining with eosin for 10 mins. The treated sliced samples were dehydrated in solution with increasing concentrations of alcohols followed by xylene. Finally, a few drops of Permount Mounting Medium were used to mount the resulting samples. The stained slides were then imaged with a 20× objective lens using a TS100F Nikon microscope (Nikon Instruments Inc., Melville, N.Y., USA) coupled with a DS-Fi3 C camera.

[5] = tested on: MDA-MB 231 induced xenograft breast tumor; experiment: histopathological (H&E) and TEM examination of treated tumor tissue; format: in vivo, mice; details: for histopathology of tumor tissue (necrosis): after treatment, H&E
Procedure: as §2, §3
as §4, with “The stained slides were then imaged with a 20× objective lens using a TS100F Nikon microscope (Nikon Instruments Inc., Melville, N.Y., USA) coupled with a DS-Fi3 C camera.” left out

[6] = 21-day (mid stage) group, 10 mg/kg per week IV, two weeks
[7] = 28-day (late stage) group, 10 mg/kg per week IV, two weeks
[8] = listed as [D-Lys6]LHRH-conjugated PGS
[9] = day 14 (early stage) group, two IV injections (one per week) of 10 mg/kg

Procedure for MDA MB 231 cells: The alamar blue cell viability and cytotoxicity assay was used to study the MDA MB 231 cells lines in the log phase of growth. MDA MB 231 cells were harvested with trypsin-EDTA in the presence of Dulbecco Phosphate Buffer (DPBS). 10^4 cells/well were then seeded in 12-well plates in L15+ medium (L15 medium with cell medium supplement of FBS and penicillin/streptomycin). […] Cell viability was monitored using the alamar blue cell viability and cytotoxicity reagent (Thermo Fisher Scientific, Waltham, Mass., USA) at times of 0 h, 18 h, 24 h, 48 h and 72 h, following drug addition. At each time point, the culture medium was replaced with 1 ml of 10% alamar blue solution (in culture medium). The 12-well plates were then incubated at 37° C. for different durations. After each time point, 100 μl of the solution incubated with alamar blue solution (ABS) was transferred into triplicate wells of a black opaque 96-well plate (Thermo Fisher Scientific, Waltham, Mass., USA).
The fluorescence intensities of the cell medium supernatant incubated with ABS were measured at 544 nm excitation and 590 nm emission using a 1420 Victor3 multi-label plate reader (Perkin Elmer, Waltham, Mass., USA). The percentage of alamar blue reduction, the percentage difference in cell population between the treated and untreated cells, and the percentage of cell growth inhibition, were determined using a combination of the ABS and cell viability studies. In this way, the cytotoxicity of the respective conjugated drug molecules was obtained from equations 1 and 2 below.
where, FIsample=fluorescence intensity of the (treated or untreated) cells, FI10% AB=fluorescence intensity of 10% alamar blue reagent (negative control) and FI10% R=fluorescence intensity of 100% reduced alamar blue (positive control).
FItreated=fluorescence intensity of treated cells and FIcells=fluorescence intensity of untreated cells

For “LHRH-PGS: [D-Lys6]LHRH analog conjugated to prodigiosin at the epsilon (ε) amino side chain of the D-Lys6 moiety”, the “cell viability (percentage alamar blue reduction) in siRNA-treated cells” value [1] was “no significant differences in cell viability”, the “structural changes of actin filaments, vinculin and nuclei (confocal)” value (MDA-MB-231 cells) was “more evident” and the “anti-tumor effect over early, mid and late stages” value (“anti-tumor effect over early” below) ([2]; listed as LHRH-prodigiosin, 10 mg/kg) was “decrease, shrink or eliminate tumors”. For the same molecule, the “anti-tumor effect over early” value ([2]; listed as [D-Lys6]LHRH-conjugated PGS, 10 mg/kg) was “significant anti-tumor effects; also recorded: highest therapeutic activity”, the “anti-tumor effect over early” value ([2]; listed as [D-Lys6]LHRH-conjugated prodigiosin, 10 mg/kg) was “shrunk or eliminate the induced tumor” and the “decrease in xenograft volume compared to unconjugated PGS” value [2, 6] was 95.6%. The resulting tumor volume [2, 6] was 3.93 mm^3, the “tumor outcome, mid stage” value [2, 6] was “significant shrinkage” and the “percentage reduction in xenograft tumor volume compared to unconjugated PGS” value [2, 7] was 83.4%. The xenograft tumor size [2, 7] was 49.9 mm^3, the “tumor outcome, late stage” value ([2]; 28-day (late stage) group, 10 mg/kg per week IV, two weeks, 10 mg/kg) was “significant tumor shrinkage” and the “tumor outcome, late stage” value ([2]; 28-day (late stage) group, 10 mg/kg per week IV, two weeks, listed as [D-Lys6]LHRH-conjugated prodigiosin, 10 mg/kg) was “significant shrinkage”. The “tumor outcome, early stage” value ([2]; day 14 (early stage) group, two IV injections (one per week) of 10 mg/kg, listed as LHRH-conjugated prodigiosin, 10 mg/kg) was “elimination of early stage breast tumors”, the “tumor outcome, early stage” value ([2]; day 14 (early stage) group, two IV injections (one per week) of 10 mg/kg, listed as [D-Lys6]LHRH-conjugated PGS, 10 mg/kg) was “tumor elimination” and the “tumor outcome, early stage” value ([2]; day 14 (early stage) group, two IV injections (one per week) of 10 mg/kg, listed as [D-Lys6]LHRH-conjugated prodigiosin, 10 mg/kg) was “eliminated the tumors”. The “adhesion force relative to unconjugated PGS, early stage” value ([3]; early stage breast tumor) was “nearly three times”, the “adhesion force relative to unconjugated PGS, late stage” value ([3]; late stage breast tumor) was “four times” and the “adhesion force relative to unconjugated PGS, mid stage” value ([3]; mid stage breast tumor) was “three times”. For the same molecule, the “histological / pathological changes in liver, lung and kidneys (H&E)” value (from here on “histological / pathological changes”) ([4]; listed as [D-Lys6]LHRH-PGS) was “did not induce any degeneration in the primary organs”, the “histological / pathological changes” value [4, 8] was “no significant histological or significant pathological changes; also recorded: no evidence of liver cell hyaline degeneration and necrosis; also recorded: no pulmonary edema or hyperplasia; also recorded: glomerular volume of the kidneys was normal; also recorded: no chemotherapeutic drug-induced histological changes and tumor metastasis” and the “toxicity / side effects (clinical signs, mortality, body weight)” value ([4]; listed as LHRH-prodigiosin) was “No clinical signs, differences in mortality, or changes in body weight”. For the same molecule, the “toxicity / side effects (clinical signs, mortality, body weight)” value ([4]; listed as [D-Lys6]LHRH-conjugated prodigiosin) was “minimal; also recorded: without any evidence of toxicity”, the “structural changes of tumor cells/tissue (TEM)” value ([5]; 21-day and 28-day treatment groups) was “greater structural changes” and the “histopathology of tumor tissue (necrosis)” value [5] was “exhibited disorder and different sizes”. For the same molecule, the “histopathology of tumor tissue (necrosis)” value [5, 8] was “higher levels of necrosis in the tumors”, the “cytotoxicity on co-incubation of LHRH” value (MDA MB 231 cells) was “decreased the cytoxicity” and the “percentage alamar blue reduction (cell viability)” value (MDA MB 231 cells; 15 μM, 25 μM, 30 μM, 18, 24, 48 and 72 h post-treatment) was “increasing drug concentration had a greater effect on cell growth”. The “percentage cell growth inhibition” value (MDA MB 231 cells; 15 μM, 25 μM, 30 μM, 72 h) was “effective at inhibiting the growth”.

For `CCCCCC1=C/C(=C/c2[nH]c(-c3ccc[nH]3)cc2OC)N=C1C` [PGS, 4-methoxy-5-[(Z)-(5-methyl-4-pentyl-2H-pyrrol-2-ylidene)methyl]-1H,1′H-2,2′-bipyrrole, reference compound], the “cell viability (percentage alamar blue reduction) in siRNA-treated cells” value [1] was “no significant differences in cell viability”, the “structural changes of actin filaments, vinculin and nuclei (confocal)” value (MDA-MB-231 cells) was “degradation, disorganization and depolymerization of the actin filaments and vinculin structures” and the resulting tumor volume [2, 6] was 90.11 mm^3. For the same molecule, the xenograft tumor size [2, 7] was 300.3 mm^3, the final tumor sizes [2, 9] was roughly 29.42 mm^3 and the “tumor outcome, early stage” value [2, 9] was “some tumor shrinkage”. For the same molecule, the “histological / pathological changes” value [4] was “no significant histological or significant pathological changes”.
